Source: ChEMBL document CHEMBL1132886, “Syntheses and properties of photoactivatable sugar derivatives designed to probe the sugar-binding site of melibiose permease” (Bioorg Med Chem Lett, 2000)

Tests used:
[1] = Binding affinity against melibiose permease ofEscherichia coli; design: species or system Escherichia coli
[2] = Binding affinity against melibiose permease of Escherichia coli

SMILES	Kd [1]	Kd [2]
N#[N+]c1ccc(OC2O[C@H](CO)[C@@H](O)[C@H](O)[C@H]2O)cc1 (some centres undefined)	60000 nM	–
[N-]=[N+]=Nc1ccc(OC2O[C@H](CO)[C@@H](O)[C@H](O)[C@H]2O)cc1 (some centres undefined)	1000 nM	–
OC[C@H]1OC(Oc2ccc(C3(C(F)(F)F)N=N3)cc2)[C@H](O)[C@@H](O)[C@@H]1O (some centres undefined)	2000 nM	–
O=[N+]([O-])c1ccc(O[C@H]2O[C@H](CO)[C@@H](O)[C@H](O)[C@H]2O)cc1	–	600 nM
